Where two headings read alike, the source gives them in different places.
What was measured:
Assay type in all cases: in vivo
[1] = tested on: corn planthopper (Peregrinus maidis (Ashmead)); test: Test C: corn planthopper control on corn plants, insect mortality after 6 days; conditions: Peregrinus maidis, read-out: % Mortality (obs)
Protocol: (§1) The pest control protection afforded by the mixtures or compositions is not limited, however, to these species. The analysis of enhanced activity between the mixtures or compositions was determined using Colby's equation. The average % mortality data for the test compounds alone were inserted into the Colby's equation. If the observed (obs) average % mortality was higher than “p”, the expected (exp) % mortality, the mixture or composition had enhanced effects. If the observed average % mortality was equal to or lower than the expected mortality, the mixture or composition either had no enhanced effect. For bioassays where insect feeding damage was evaluated, enhanced activity is identified when the observed plant damage is less than the expected plant damage rating; ratings ranged between 0 (no damage) and 10 (dead plant) and each value was converted to a % plant protection. 100−(Obs Plant Damage*10)
For evaluating control of corn planthopper (Peregrinus maidis (Ashmead)) through contact and/or systemic means, the test unit consisted of a small open container with a 3-4-day-old corn (maize) plant inside. White sand was added to the top of the soil prior to application of the test compound.
Test compounds were formulated and sprayed at 250 and/or 50 ppm and/or 10 ppm. After spraying of the formulated test compound, the test units were allowed to dry for 1 h before they were post-infested with ˜15-20 nymphs (18-to-21-day-old). […]

[2] = tested on: cotton melon aphid (Aphis gossypii Glover); test: Test D: cotton melon aphid control on okra plants, insect mortality after 6 days; conditions: Aphis gossypii, read-out: % Mortality (obs)
Protocol: The analysis of enhanced activity between the mixtures or compositions was determined using Colby's equation. The average % mortality data for the test compounds alone were inserted into the Colby's equation. If the observed (obs) average % mortality was higher than “p”, the expected (exp) % mortality, the mixture or composition had enhanced effects. If the observed average % mortality was equal to or lower than the expected mortality, the mixture or composition either had no enhanced effect. For bioassays where insect feeding damage was evaluated, enhanced activity is identified when the observed plant damage is less than the expected plant damage rating; ratings ranged between 0 (no damage) and 10 (dead plant) and each value was converted to a % plant protection. 100−(Obs Plant Damage*10)
For evaluating control of cotton melon aphid (Aphis gossypii Glover) through contact and/or systemic means, each test unit consisted of a small open container with a 6- to 7-day-old okra plant inside. This was pre-infested by placing on a leaf of the test plant 30 to 40 aphids on a piece of leaf excised from a culture plant (cut-leaf method). The […] moved onto the test plant as the leaf piece desiccated. After pre-infestation, the soil of the test unit was covered with a layer of sand.
Test compounds were formulated and sprayed as described for Test A. The applications were replicated three times. After spraying of the formulated test compounds, each test unit was allowed to dry for 1 hour and then a black, screened cap was placed on top. […]

[3] = tested on: diamondback moth (Plutella xylostella L.); test: Test E: diamondback moth control through ingestion only, sprayed cabbage leaf tissue (Dipel), mortality after 4 days; conditions: Table 6c, read-out: % Mortality (obs)
Protocol: as §1
For evaluating control of diamondback moth (Plutella xylostella L.) through ingestion only, the test substance Dipel® (active ingredient Bacillus thuringiensis kurstaki) was formulated by diluting in water and then adding an MSO based adjuvant at 0.1% v/v. Cabbage plants were sprayed with Dipel® to runoff and allowed to dry for three hours. Once dry, plants leaf tissue was excised and one piece was placed into one well in an eight well tray. Test units were maintained in a growth chamber at 24-25° C. and 70% relative humidity.

## CSCC(C)(C)NC(=O)c1ccc(F)c2nn(-c3cccnc3)cc12 [Cpd 1, N-[1,1-dimethyl-2-(methylthio)ethyl]-7-fluoro-2-(3-pyridinyl)-2H-indazole-4-carboxamide]
[1]; 96 h, Table 4d
  mortality at 50 ppm: 14.8%
  mortality at 250 ppm: 45.8%
[1]; Table 4e
  mortality at 50 ppm: 18.9%
  mortality at 250 ppm: 7.6%
[2]; 5 h, Table 5h
  mortality at 0.08 ppm: 37.3%
  mortality at 0.12 ppm: 50.5%
[2]; 120 h, Table 5d
  mortality at 0.08 ppm: 23.8%
  mortality at 0.12 ppm: 49.8%
[2]; Table 5a
  mortality at 0.08 ppm: 23.8%
  mortality at 0.12 ppm: 49.8%
[2]; Table 5b
  mortality at 0.08 ppm: 23.8%
  mortality at 0.12 ppm: 49.8%
[2]; Table 5c
  mortality at 0.08 ppm: 100%
  mortality at 0.12 ppm: 26.7%
[2]; Table 5e
  mortality at 0.08 ppm: 21.3%
  mortality at 0.12 ppm: 35.3%
[2]; Table 5f
  mortality at 0.08 ppm: 20.8%
  mortality at 0.12 ppm: 39.4%
[2]; Table 5g
  mortality at 0.08 ppm: 29.1%
  mortality at 0.12 ppm: 35.9%

## C[S+]([O-])CC(C)(C)NC(=O)c1ccc(F)c2nn(-c3cccnc3)cc12 (centres unmarked) [Cpd 2, N-[1,1-dimethyl-2-(methylsulfinyl)ethyl]-7-fluoro-2-(3-pyridinyl)-2H-indazole-4-carboxamide]
[1]; 96 h, Table 4d
  mortality at 50 ppm: 0%
  mortality at 250 ppm: 54.1%
[1]; Table 4e
  mortality at 50 ppm: 7.3%
  mortality at 250 ppm: 22.4%
[2]; 5 h, Table 5h
  mortality at 0.05 ppm: 43.9%
  mortality at 0.18 ppm: 57.5%
[2]; 120 h, Table 5d
  mortality at 0.05 ppm: 40.1%
  mortality at 0.18 ppm: 31.4%
[2]; Table 5a
  mortality at 0.05 ppm: 40.1%
  mortality at 0.18 ppm: 31.4%
[2]; Table 5b
  mortality at 0.05 ppm: 40.1%
  mortality at 0.18 ppm: 31.4%
[2]; Table 5c
  mortality at 0.05 ppm: 0%
  mortality at 0.18 ppm: 80%
[2]; Table 5e
  mortality at 0.05 ppm: 16.3%
  mortality at 0.18 ppm: 37%
[2]; Table 5f
  mortality at 0.05 ppm: 17.1%
  mortality at 0.18 ppm: 37.2%
[2]; Table 5g
  mortality at 0.05 ppm: 23.4%
  mortality at 0.18 ppm: 38.3%

## CC(C)(CS(C)(=O)=O)NC(=O)c1ccc(F)c2nn(-c3cccnc3)cc12 [Cpd 3, N-[1,1-dimethyl-2-(methylsulfonyl)ethyl]-7-fluoro-2-(3-pyridinyl)-2H-indazole-4-carboxamide]
[1]; 96 h, Table 4d
  mortality at 50 ppm: 8.3%
  mortality at 250 ppm: 0%
[1]; Table 4e
  mortality at 50 ppm: 5%
  mortality at 250 ppm: 1.2%
[2]; 5 h, Table 5h
  mortality at 0.02 ppm: 37.4%
  mortality at 0.08 ppm: 43.5%
[2]; 120 h, Table 5d
  mortality at 0.02 ppm: 20%
  mortality at 0.08 ppm: 43.2%
[2]; Table 5a
  mortality at 0.02 ppm: 20%
  mortality at 0.08 ppm: 43.2%
[2]; Table 5b
  mortality at 0.02 ppm: 20%
  mortality at 0.08 ppm: 43.2%
[2]; Table 5c
  mortality at 0.02 ppm: 0%
  mortality at 0.08 ppm: 20%
[2]; Table 5e
  mortality at 0.02 ppm: 19.9%
  mortality at 0.08 ppm: 31.1%
[2]; Table 5f
  mortality at 0.02 ppm: 17.6%
  mortality at 0.08 ppm: 39%
[2]; Table 5g
  mortality at 0.02 ppm: 15.8%
  mortality at 0.08 ppm: 30.6%

## CC1(NC(=O)c2cccc3nn(-c4cccnc4)cc23)CC1 [Cpd 4, N-(1-methylcyclopropyl)-2-(3-pyridinyl)-2H-indazole-4-carboxamide]
[3]; 50 ppm
  mortality at 50 ppm: 12.5%
[3]; 250 ppm
  mortality at 250 ppm: 17%
[1]; 96 h, Table 4d
  mortality at 50 ppm: 0%
  mortality at 250 ppm: 9.1%
[1]; Table 4e
  mortality at 50 ppm: 38.9%
  mortality at 250 ppm: 34.8%
[1]; Table 4f
  mortality at 50 ppm: 1.8%
  mortality at 250 ppm: 10.8%
[1]; Table 4g
  mortality at 50 ppm: 1.8%
  mortality at 250 ppm: 10.8%
[2]; 5 h, Table 5h
  mortality at 0.2 ppm: 44.6%
  mortality at 0.5 ppm: 68.7%
[2]; 120 h, Table 5d
  mortality at 0.2 ppm: 48.3%
  mortality at 0.5 ppm: 58.9%
[2]; Table 5a
  mortality at 0.2 ppm: 48.3%
  mortality at 0.5 ppm: 58.9%
[2]; Table 5b
  mortality at 0.2 ppm: 48.3%
  mortality at 0.5 ppm: 58.9%
[2]; Table 5c
  mortality at 0.2 ppm: 6.7%
  mortality at 0.5 ppm: 6.7%
[2]; Table 5e
  mortality at 0.2 ppm: 30.8%
  mortality at 0.5 ppm: 69.7%
[2]; Table 5f
  mortality at 0.2 ppm: 40.7%
  mortality at 0.5 ppm: 73.4%
[2]; Table 5g
  mortality at 0.2 ppm: 21%
  mortality at 0.5 ppm: 45.1%
[2]; Table 5i
  mortality at 0.2 ppm: 33.5%
  mortality at 0.5 ppm: 80.3%
[2]; Table 5j
  mortality at 0.2 ppm: 33.5%
  mortality at 0.5 ppm: 80.3%
[2]; Table 5k
  mortality at 0.2 ppm: 40.2%
  mortality at 0.5 ppm: 69.3%
[2]; Table 5l
  mortality at 0.2 ppm: 40.2%
  mortality at 0.5 ppm: 69.3%
[2]; Table 5m
  mortality at 0.2 ppm: 42.5%
  mortality at 0.5 ppm: 65%
[2]; Table 5n
  mortality at 0.2 ppm: 57.1%
  mortality at 0.5 ppm: 73.9%
